Values after ≈ are worked out from the molar mass of the structure shown. Read-outs that look alike come from different tables or passages of the source.
Experiments:
[1] = test system: blue mussel phenoloxidase; parameters: method as in Bayer et al. [2011]; settings: ref Bayer et al. [2011]; cited from earlier work
[2] = test system: Balanus improvisus cyprid larvae; settings: cited from earlier work
marine bacteria [3] = experiment: Bacterial adhesion assay, whole panel of ten strains; type: cell-based, 10 marine bacterial strains; settings: tested up to 10 μg/mL, active = MIC of 10 μg/mL or below
From the text: (§1) Cyprid larvae of B. improvisus were reared in a laboratory cultivating system at Tjärnö Marine Biological Laboratory, University of Gothenburg, Sweden, as previously described by Berntsson et al. ([2000]). Four pure, but non-axenic, marine microalgae (obtained from Algobank, Caen, France) and 10 marine bacterial strains were used (Table 1) as representative microfoulers. These strains represent fouling species encountered in both estuarine and marine environments (Moodie et al. [2017b]). The bacteria were grown at 26 °C in a marine medium, composed of 0.5% peptone (neutralized bacteriological peptone, Oxoid Ltd.) in filtered (Whatman 1001–270, pore size 11 μm) natural seawater. Microalgae were grown and maintained at 22 °C in F/2 medium.
(§2) Bacterial strain adhesion and growth were determined according to the methods of Thabard et al. ([2011]). Bacterial suspensions (100-μL aliquots, 2 × 10^8 colony forming units/mL) were aseptically added to the compound containing microplate wells (10–0.01 μg/mL), and the plates were incubated for 48 h at 26 °C. Media only was used as a blank. Bacterial growth was monitored spectroscopically at 630 nm. The minimal inhibitory concentration (MIC) for bacterial growth was defined as the lowest concentration which results in a decrease in OD. After 48-h incubation time, the bacterial adhesion assay was conducted by emptying the wells and rinsing with sterile seawater (100 μL) to remove non-attached cells, and air-drying at room temperature. The residual bacterial biofilm was stained with aqueous crystal violet (100 μL, 0.3% v/v) and the OD measured at 595 nm (Sonak and Bhosle [1995]). […] If inhibition was observed, toxicity tests were conducted. The well contents were transferred into a flask of fresh media, and growth was measured after 5 days of additional incubation. The mode of action was deemed biostatic if an increase in OD was measured at 595 nm (Moodie et al. [2017a]).

Porphyridium purpureum [4] = experiment: Microalgal growth assay (chlorophyll a); type: cell-based; settings: 120 h, 5 days incubation, 10–0.01 μg/mL tested, read-out: MIC against the growth (G) of microalgae, P. purpureum
From the text: as §1
(§3) Microplates containing the compounds in ranging concentrations (10–0.01 μg/mL) were prepared from MeOH stock solutions as previously described (Trepos et al. [2014]; Moodie et al. [2017a]). Microalgal stock solutions were prepared using the chlorophyll analysis methodology of Chambers et al. ([2011]). The pretreated microplate wells were treated with 100 μL of the algal stock solutions (0.1 mg chlorophyll a/mL). The plates were then incubated for 5 days at 20 °C under constant light exposure (140 μmol m^−2 s^−1). Both microalgal adhesion and growth inhibition were measured. Growth was determined by analysis of liberated chlorophyll a after centrifugation and methanol addition. Chlorophyll a was quantified fluorometrically. MIC value for algal growth was defined as the lowest concentration yielding a decrease in chlorophyll a content. Microalgal adhesion was determined in an analogous manner where the non-attached algal cells were removed prior to methanol addition (100 μL), releasing chlorophyll a from the remaining algal biofilms. The MIC for adhesion was defined as the lowest compound concentration causing a reduction in […]. Toxicity experiments were performed in an analogous manner to those described for the bacterial assays.

Halamphora coffeaeformis [5] = experiment: Microalgal growth assay (chlorophyll a); type: cell-based; settings: Halamphora coffeiformis, 120 h, 5 days incubation, 10–0.01 μg/mL tested, read-out: MIC against the growth (G) of microalgae, H. coffeaformis
From the text: as §1, §3

[6] = test system: Pleurochrysis roscoffensis; experiment: Microalgal growth assay (chlorophyll a); type: cell-based; settings: Chrysotila roscoffensis, 120 h, 5 days incubation, 10–0.01 μg/mL tested, read-out: MIC against the growth (G) of microalgae, P. roscoffensis
From the text: as §1, §3

Cylindrotheca closterium [7] = experiment: Microalgal growth assay (chlorophyll a); type: cell-based; settings: 120 h, 5 days incubation, 10–0.01 μg/mL tested, read-out: MIC against the growth (G) of microalgae, C. closterium
From the text: as §1, §3

[8] = test system: Balanus improvisus cyprid larvae; experiment: whole plant or invertebrate; type: in vivo
From the text: as §1
Stock solutions of compounds in DMSO were serially diluted in untreated polystyrene Petri dishes containing 10 mL of filtered (0.2 μm) seawater, affording final concentrations ranging from 0.1 to 10 μg/mL. Freshly molted balanide cyprids (18–22) were added to each Petri dish and incubated at ambient temperature (20–25 °C) for 5 days. Cyprid metamorphosis was assessed using a dissecting microscope where the numbers of juvenile settled, free-swimming, and dead cyprids were noted. Initial compound screening was conducted at 5 μg/mL, and full IC50 determination was performed only on compounds displaying > 50% inhibition at that concentration. The IC50 was defined as the concentration preventing 50% of the cyprid settlement on the Petri dish surface. Each concentration was replicated four times (n = 4), and dishes containing 0.1% of DMSO were used as negative controls. The commercial AF agent Sea-nine™ was employed as a positive control.

Vibrio proteolyticus [9] = experiment: Bacterial growth assay (OD 630 nm); type: cell-based; settings: 48 h incubation, 10–0.01 μg/mL tested, read-out: MIC against the growth of marine bacteria, V.p.
From the text: as §1, §2

[10] = test system: Pseudoalteromonas elyakovii; experiment: Bacterial growth assay (OD 630 nm); type: cell-based; settings: 48 h incubation, 10–0.01 μg/mL tested, read-out: MIC against the growth of marine bacteria, P.e.
From the text: as §1, §2

Halomonas aquamarina [11] = experiment: Bacterial growth assay (OD 630 nm); type: cell-based; settings: Vreelandella aquamarina, 48 h incubation, 10–0.01 μg/mL tested, read-out: MIC against the growth of marine bacteria, H.a.
From the text: as §1, §2

Vibrio carchariae [12] = experiment: Bacterial growth assay (OD 630 nm); type: cell-based; settings: Vibrio harveyi, 48 h incubation, 10–0.01 μg/mL tested, read-out: MIC against the growth of marine bacteria, V.c.
From the text: as §1, §2

Vibrio aestuarianus [13] = experiment: Bacterial growth assay (OD 630 nm); type: cell-based; settings: 48 h incubation, 10–0.01 μg/mL tested, read-out: MIC against the growth of marine bacteria, V.a.
From the text: as §1, §2

Vibrio natriegens [14] = experiment: Bacterial growth assay (OD 630 nm); type: cell-based; settings: 48 h incubation, 10–0.01 μg/mL tested, read-out: MIC against the growth of marine bacteria, V.n.
From the text: as §1, §2

Shewanella putrefaciens [15] = experiment: Bacterial growth assay (OD 630 nm); type: cell-based; settings: 48 h incubation, 10–0.01 μg/mL tested, read-out: MIC against the growth of marine bacteria, S.p.
From the text: as §1, §2

Vibrio harveyi [16] = experiment: Bacterial growth assay (OD 630 nm); type: cell-based; settings: 48 h incubation, 10–0.01 μg/mL tested, read-out: MIC against the growth of marine bacteria, V.h.
From the text: as §1, §2

Roseobacter litoralis [17] = experiment: Bacterial growth assay (OD 630 nm); type: cell-based; settings: 48 h incubation, 10–0.01 μg/mL tested, read-out: MIC against the growth of marine bacteria, R.l.
From the text: as §1, §2

Halomonas aquamarina [18] = experiment: Bacterial adhesion assay (crystal violet, OD 595 nm); type: cell-based; settings: Vreelandella aquamarina, 48 h incubation, 10–0.01 μg/mL tested, read-out: MIC against the adhesion of marine bacteria, H.a.
From the text: as §1, §2

Vibrio carchariae [19] = experiment: as above; type: cell-based; settings: Vibrio harveyi, 48 h, read-out: MIC against the adhesion of marine bacteria, V.c.
From the text: as §1, §2

Vibrio aestuarianus [20] = experiment: as above; type: cell-based; settings: 48 h, read-out: MIC against the adhesion of marine bacteria, V.a.
From the text: as §1, §2

Vibrio harveyi [21] = experiment: as above; type: cell-based; settings: 48 h, read-out: MIC against the adhesion of marine bacteria, V.h.
From the text: as §1, §2

microalgae = test system: microalgae; parameters: method as in Hanssen et al. [2014]; settings: ref Hanssen et al. [2014]; cited from earlier work
Vibrio carchariae [22] = settings: ref Hanssen et al. ([2014]); cited from earlier work
Halamphora coffeaeformis [23] = settings: ref Hanssen et al. ([2014]); cited from earlier work
Vibrio natriegens [24] = settings: ref Hanssen et al. ([2014]); cited from earlier work
Vibrio proteolyticus [25] = settings: ref Hanssen et al. ([2014]); cited from earlier work
Halomonas aquamarina [26] = settings: ref Hanssen et al. ([2014]); cited from earlier work
Vibrio aestuarianus [27] = settings: ref Hanssen et al. ([2014]); cited from earlier work
Cylindrotheca closterium [28] = settings: ref Hanssen et al. ([2014]); cited from earlier work
Porphyridium purpureum [29] = settings: ref Hanssen et al. ([2014]); cited from earlier work
marine bacteria [30] = settings: panel of marine bacteria; ref Hanssen et al. [2014]; cited from earlier work
Cylindrotheca closterium [31] = settings: ref Hanssen et al. ([2014]); cited from earlier work; remark: listed apart in the source
Vibrio aestuarianus [32] = settings: ref Hanssen et al. ([2014]); cited from earlier work; remark: listed apart in the source
Halomonas aquamarina [33] = settings: ref Hanssen et al. ([2014]); cited from earlier work; remark: listed apart in the source
Vibrio proteolyticus [34] = settings: ref Hanssen et al. ([2014]); cited from earlier work; remark: listed apart in the source
Vibrio carchariae [35] = settings: ref Hanssen et al. ([2014]); cited from earlier work; remark: listed apart in the source
Vibrio harveyi [36] = settings: ref Hanssen et al. ([2014]); cited from earlier work
Halamphora coffeaeformis [37] = settings: ref Hanssen et al. ([2014]); cited from earlier work; remark: listed apart in the source
Vibrio harveyi [38] = settings: ref Hanssen et al. ([2014]); cited from earlier work; remark: listed apart in the source
[39] = test system: Pleurochrysis roscoffensis; settings: ref Hanssen et al. ([2014]); cited from earlier work
[40] = test system: Pseudoalteromonas elyakovii; settings: ref Hanssen et al. ([2014]); cited from earlier work
[41] = test system: Pleurochrysis roscoffensis; settings: ref Hanssen et al. ([2014]); cited from earlier work; remark: listed apart in the source
Porphyridium purpureum [42] = settings: ref Hanssen et al. ([2014]); cited from earlier work; remark: listed apart in the source
Shewanella putrefaciens [43] = settings: ref Hanssen et al. ([2014]); cited from earlier work
Roseobacter litoralis [44] = settings: ref Hanssen et al. ([2014]); cited from earlier work

O=C(NCCc1ccc(O)cc1)C(Cc1ccc(O)cc1)=NO [Compound 4, debromohemibastadin-1]
inhibition of phenoloxidase, in words [1]: inhibit
minimum significant dose to inhibit settlement ([2]; B. improvisus larvae settlement, ref Ortlepp et al. [2007]): 100 µM

COc1cc(CC(=NO)c2ccc(OC)c(OC)c2)ccc1O [Compound 14, 1-(3,4-dimethoxyphenyl)-1-hydroxyimino-2-(3’-methoxy-4’-hydroxyphenyl)-ethane]
MIC / activity against the adhesion of all bacteria tested (marine bacteria [3]): displayed inhibitory activities
MIC (Porphyridium purpureum [4]): > 10 µg/mL
MIC (Halamphora coffeaeformis [5]): 10 µg/mL (≈ 31.5 µM)
MIC [6]: 10 µg/mL (≈ 31.5 µM)
MIC (Cylindrotheca closterium [7]): 10 µg/mL (≈ 31.5 µM)
IC50 ([8]; Amphibalanus improvisus, 120 h, read-out: IC50 (cyprid settlement inhibition)): 1 µg/mL (≈ 3.15 µM)
Toxicity (%) (dead cyprids) ([8]; Balanus improvisus, in vivo, 5 days, 5 μg/mL): 4.8%
MIC (Vibrio proteolyticus [9]): > 10 µg/mL
MIC [10]: > 10 µg/mL
MIC (Halomonas aquamarina [11]): > 10 µg/mL
MIC (Vibrio carchariae [12]): > 10 µg/mL
MIC (Vibrio aestuarianus [13]): > 10 µg/mL
MIC (Vibrio natriegens [14]): > 10 µg/mL
MIC (Shewanella putrefaciens [15]): 10 µg/mL (≈ 31.5 µM)
MIC (Vibrio harveyi [16]): > 10 µg/mL
MIC (Roseobacter litoralis [17]): > 10 µg/mL
MIC (Halomonas aquamarina [18]): 10 µg/mL (≈ 31.5 µM)
MIC (Vibrio carchariae [19]): 10 µg/mL (≈ 31.5 µM)
MIC (Vibrio aestuarianus [20]): 10 µg/mL (≈ 31.5 µM)
MIC (Vibrio harveyi [21]): 10 µg/mL (≈ 31.5 µM)

COc1c(Br)cc(C/C(=N\O)C(=O)NCCc2c[nH]c(=N)[nH]2)cc1Br [Ianthelline, ianthelline]
antialgal activity, in words (microalgae): poor antialgal activity
MIC against the adhesion of marine bacteria, V.c. (Vibrio carchariae [22]): – (Not active at > 10 μg/mL)
MIC against the growth (G) of microalgae, H. coffeaformis (Halamphora coffeaeformis [23]): > 10 µg/mL
MIC against the growth of marine bacteria, V.n. (Vibrio natriegens [24]): – (Not active at > 10 μg/mL)
MIC against the growth of marine bacteria, V.p. (Vibrio proteolyticus [25]): 10 µg/mL
MIC against the adhesion of marine bacteria, H.a. (Halomonas aquamarina [26]): – (Not active at > 10 μg/mL)
MIC against the adhesion of marine bacteria, V.a. (Vibrio aestuarianus [27]): 0.1 µg/mL
MIC against the growth (G) of microalgae, C. closterium (Cylindrotheca closterium [28]): > 10 µg/mL
MIC against the adhesion (A) of microalgae, P. purpureum (Porphyridium purpureum [29]): > 10 µg/mL
Inhibition of bacterial adhesion, in general (marine bacteria [30]): not effective
MIC against the adhesion (A) of microalgae, C. closterium (Cylindrotheca closterium [31]): > 10 µg/mL
MIC against the growth of marine bacteria, V.a. (Vibrio aestuarianus [32]): 0.1 µg/mL
MIC against the growth of marine bacteria, H.a. (Halomonas aquamarina [33]): – (Not active at > 10 μg/mL)
MIC against the adhesion of marine bacteria, V.p. (Vibrio proteolyticus [34]): – (Not active at > 10 μg/mL)
MIC against the growth of marine bacteria, V.c. (Vibrio carchariae [35]): – (Not active at > 10 μg/mL)
IC50 (cyprid settlement inhibition) ([2]; B. improvisus, ref Hanssen et al. ([2014])): 3.0 µg/mL (≈ 6.31 µM)
Toxicity (%) (dead cyprids) ([2]; B. improvisus, reported at 5 μg/mL, ref Hanssen et al. ([2014])): 10.0%
MIC against the adhesion of marine bacteria, V.h. (Vibrio harveyi [36]): – (Not active at > 10 μg/mL)
MIC against the adhesion (A) of microalgae, H. coffeaformis (Halamphora coffeaeformis [37]): > 10 µg/mL
MIC against the growth of marine bacteria, V.h. (Vibrio harveyi [38]): 10 µg/mL
MIC against the growth (G) of microalgae, P. roscoffensis [39]: 10 µg/mL
MIC against the growth of marine bacteria, P.e. [40]: 1 µg/mL
MIC against the adhesion (A) of microalgae, P. roscoffensis [41]: > 10 µg/mL
MIC against the growth (G) of microalgae, P. purpureum (Porphyridium purpureum [42]): > 10 µg/mL
MIC against the growth of marine bacteria, S.p. (Shewanella putrefaciens [43]): 0.1 µg/mL
MIC against the growth of marine bacteria, R.l. (Roseobacter litoralis [44]): 1 µg/mL
